What all share (assay): Antiviral activity in deCIPhR cellular system (replicative phenotyping, β-galactosidase indicator cell line)
Holding throughout (format): cell-based
What all share (details): Human immunodeficiency virus 1

One assay has as its system HIV-1 mutant M184V. An excerpt:
(§1) Fully infectious virus HIV-1 was produced from cloned proviral DNA reference coding either for wild-type HIV-1 or from drug-resistant virus following transfection of proviral DNA into recipient mammalian cells. Subsequent to viral protein expression and particle formation, culture supernatant was harvested and used to infect an indicator cell line. This latter cell line expresses all necessary receptors and co-receptors for HIV infection as well as the bacterial gene LacZ coding for β-galactosidase under the control of the HIV-1 long terminal repeat. In this system, amount of β-galactosidase is directly proportional to the extent of viral replication. Activity of β-galactosidase is assayed in presence of a colorless substrate which upon enzymatic conversion yields a yellow product absorbing at 405 nm. Next, variation in colorimetric readout in presence of test compounds was translated in percent viral inhibition following normalization according to absorbance values of positive (presence of anti-HIV drug) and negative (untreated) control wells included in each 96 well-plate. For determining effective concentration 50 % (EC50), test compounds were assayed across a range of concentrations. Percent inhibition data in function of drug concentration were processed by a statistical curve fitting software yielding a modeled curve from which EC50 was extrapolated.

The test system of a further assay is HIV-1 mutant M4.
Text: as §1

The test system of the next assay is HIV-1 wild type pNL4-3.
Text: as §1

A further assay concerns HIV-1 mutant K103N.
Text: as §1

For the next assay, the system named is HIV-1 mutant GQ (MDR).
Text: as §1

In a further assay the test system is HIV-1 mutant K65R.
Text: as §1

The results in this text go back to EP2402357B1, “Analogs of 2',3'-dideoxy-3'-fluorothymidine 5'-monophosphate (FLTMP) for use in the treatment of infections caused by human HIV-1 strains” (priority 2010, dated 2012).

Where a name gives a salt, the structure may show the parent alone.

One may read the EC50 as the concentration giving half of the maximal effect. A low value points to an effect from little substance. The term EC90 denotes the point of the concentration-response curve where the effect stands at 90%. Low values mean an effect from little substance, high ones a need for much substance. On to `Cc1cn([C@H]2C[C@H](F)[C@@H](COP(=O)(O)O)O2)c(=S)[nH]c1=O` [Example 2-SFLTMP, 1-(2-deoxy-3-fluoro-β-D-ribofuranosyl)-2-thiothymine 5'-monophosphate disodium salt], for which the half-maximal effective concentration (EC50) with HIV-1 mutant M184V amounted to 144 nM; in the assay with HIV-1 mutant M4 it was 392 nM; in the assay with HIV-1 wild type pNL4-3, 224 nM; with HIV-1 mutant K103N it was 114 nM; in the assay with HIV-1 mutant GQ (MDR), 2850 nM; with HIV-1 mutant K65R, 504 nM. The EC90 with HIV-1 mutant M184V came out at 3260 nM; in the assay with HIV-1 mutant M4, 3680 nM; in the assay on HIV-1 wild type pNL4-3, 2580 nM; in the assay with HIV-1 mutant K103N it was 978 nM; with HIV-1 mutant GQ (MDR), 4530 nM; with HIV-1 mutant K65R, 4340 nM.

In the case of `Cc1cn([C@H]2C[C@H](F)[C@@H](CO)O2)c(=O)[nH]c1=O` [FLT, 2',3'-Dideoxy-3'-fluorothymidine], the EC50 was found to be 27 nM in the assay on HIV-1 mutant M184V; 16 nM in the assay on HIV-1 mutant M4; 21 nM in the assay with HIV-1 wild type pNL4-3; 18 nM with HIV-1 mutant K103N; 131 nM with HIV-1 mutant GQ (MDR); 32 nM with HIV-1 mutant K65R. The EC90 in the assay on HIV-1 mutant M184V was determined as 119 nM; in the assay with HIV-1 mutant M4, 118 nM; in the assay with HIV-1 wild type pNL4-3, 210 nM; in the assay on HIV-1 mutant K103N it was 71 nM; in the assay on HIV-1 mutant GQ (MDR), 1300 nM; with HIV-1 mutant K65R it was 96 nM.

Consider `Cc1cn([C@H]2C[C@H](F)[C@@H](COP(=O)(O)O)O2)c(=O)[nH]c1=S` [Example 4-SFLTMP, 1-(2-deoxy-3-fiuoro-β-D-ribofuranosyl)-4-thiothymine 5'-monophosphate disodium salt], for which the EC50 in the assay on HIV-1 mutant M184V was found to be 43 nM; in the assay on HIV-1 mutant M4, 31 nM; with HIV-1 wild type pNL4-3 it was 24 nM; in the assay with HIV-1 mutant K103N it was 11 nM; in the assay with HIV-1 mutant GQ (MDR), 48 nM; with HIV-1 mutant K65R it was 96 nM. The 90% effect concentration (EC90) was 425 nM in the assay on HIV-1 mutant M184V; 381 nM in the assay on HIV-1 mutant M4; 166 nM in the assay on HIV-1 wild type pNL4-3; 50 nM with HIV-1 mutant K103N; 1800 nM with HIV-1 mutant GQ (MDR); 338 nM with HIV-1 mutant K65R.
